Test results: US20060286625A1, “Rapid enrichment for Listeria” (Kraft Foods Holdings, Inc., priority 2005, published 2006)

Each compound was assayed on environmental isolates (assay: Effect of Polymyxin B, Acriflavine HCl and Ceftazidime on environmental isolates). Settings: used together in the Selective medium.
Type: cell-based
Protocol: Nineteen non-Listeria organisms isolated from environmental sponges from meat and dairy manufacturing facilities were inoculated separately into Tryptic Soy broth (TSB, Difco) and incubated for 24 h at 30° C. The isolates were screened for growth in Selective and Non-Selective media by monitoring absorbance via a spectrophotometer. 900 μl of test media and either 100 μl of culture or Butterfield's Buffer (International BioProducts) were added to a cuvette and incubated at 30° C. Absorbance readings were taken at 660 nm on a spectrophotometer (Shimadzu UV160U) at To, 2 h, 4 h, and 6 h and compared to the corresponding blank cuvette with buffer. Growth was scored by absorbance readings.
The Non-Selective medium consisted of Universal Preenrichment Broth (UPB, Difco) with 0.4% Yeast Extract (YE, Difco). The Selective medium consisted of Universal Preenrichment Broth (UPB, Difco) with 0.4% Yeast Extract (YE, Difco), 0.001% Polymymin B, 0.0005% Acriflavine HCl, and 0.002% Ceftazidime.
Several environmental organisms screened via spectrophotometer were selected to test in mixed culture with Listeria. Environmental isolates were inoculated separately into TSB and incubated for 24 h at 30° C. The growth level was determined by serial dilutions plated on Tryptic Soy agar (TSA, Difco) and incubated at 30° C. for 24 h. Based on the cell counts, the culture was diluted in Butterfield's Buffer and a volume of the diluted culture targeting an initial cell count of 1000 CFU/mL was inoculated into the test media.
30 mL of Non-Selective or Selective medium was added to 10 ml of Butterfield's Buffer to simulate the addition of media to environment sponge. A Non-Selective and Selective medium was inoculated with Listeria culture alone, environmental isolate alone, and Listeria and environment isolate combined. The media were incubated in a water bath at 30° C. Serial dilutions of inoculated media were collected at To and 8 h and plated on Oxford Media Base and a differential media particular to the environmental isolate being tested (see Table 2). […]
In the case of CC(C)(O/N=C(\C(=O)N[C@@H]1C(=O)N2C(C(=O)[O-])=C(C[n+]3ccccc3)CS[C@H]12)c1csc(N)n1)C(=O)O [Ceftazidime], the “Effectiveness as selective agents against environmental isolates (in words)” value (“Effectiveness as selective agents” for short) is reported as “effective selective agents against many environmental isolates”. With Acriflavine HCl the “Effectiveness as selective agents” value was “effective selective agents against many environmental isolates”. In the case of Polymyxin B, the “Effectiveness as selective agents” value is reported as “effective selective agents against many environmental isolates”.
